Tested on: patients with prior myocardial infarction (CARE study)
Assay: CARE: association of SNPs with pravastatin treatment in cardiovascular events prevention (logistic regression, odds ratio pravastatin vs placebo by genotype; Table 8)
Format: in vivo, human
Conditions: for Fatal CHD/Definite Nonfatal MI, n/total (%) / Fatal/Nonfatal MI (def & prob), n/total (%) / MI (Fatal/Nonfatal), n/total (%) / Nonfatal MI (Probable/Definite), n/total (%) / Nonfatal MI (def & prob), n/total (%): GAPD hCV8921288, All Patients
From the text: In order to identify genetic markers associated with acute coronary events (e.g. MI, stroke, unstable angina, congestive heart failure, etc.) or response to statin treatment for the prevention of coronary events, samples from the Cholesterol and Recurrent Events (CARE) study (a randomized multicentral double-blinded trial on secondary prevention of acute coronary events with pravastatin) (Sacks et al., 1991, Am. J. Cardiol. 68: 1436-1446) were genotyped. A well-documented myocardial infarction (MI) was one of the enrollment criteria for entry into the CARE study. Patients were enrolled in the CARE trial from 80 participating study centers. […] Patients were randomized to receive either 40 mg of pravastatin once daily or a matching placebo. The primary endpoint of the trial was death from coronary heart disease and the median duration of follow-up was 5.0 years (range, 4.0 to 6.2 years). […] Secondary endpoints of other related cardiovascular or metabolic disease events, and changes in clinical variables were also recorded in pravastatin-treated and placebo groups. All individuals included in the study had signed a written informed consent form and the study protocol was approved by the respective Institutional Review Boards (IRBs).
For genotyping SNPs in CARE patient samples, DNA was extracted from blood samples using conventional DNA extraction methods such as the QIA-amp kit from Qiagen. Genotypes were obtained on an ABI PRISM® 7900HT Sequence Detection PCR system (Applied Biosystems, Foster City, Calif.) by kinetic allele-specific PCR, similar to the method described by Germer et al. (Germer S., Holland M. J., Higuchi R. 2000, Genome Res. 10: 258-266).
Statistical analysis for association of SNPs with pravastatin treatment in cardiovascular events prevention (Table 8) was carried out using an overall logistic regression model that included an intercept, a parameter for the effect of a genotype containing two rare alleles versus a genotype containing no rare alleles, a parameter for the effect of a genotype containing one rare allele versus a genotype containing no rare alleles, a parameter for the effect of use of pravastatin versus the use of placebo, and parameters for the interaction effects between SNP genotypes and pravastatin use. The test of the overall model is a chi-square test with two degrees of freedom for analyses containing all three genotypes, and one degree of freedom for analyses containing two genotypes.
Effect sizes were estimated through odds ratios (pravastatin group versus placebo) for carriers of each genotype (groups of 0, 1, and 2 minor allele carriers). The effect was considered to be significant if p-value for testing whether any of the interactions between SNP genotypes and pravastatin use were <0.05. […] Odds ratios less than one indicate that the specific SNP allele has a protective effect and odds ratios greater than one indicate that the specific SNP allele has an adverse effect.

[1] = ELN hCV1253630, All Patients, Fatal CHD/Definite Non-fatal MI
[2] = ELN hCV1253630, All Patients, Fatal/Non-fatal MI (def & prob)
[3] = ELN hCV1253630, All Patients, Hosp. for Cardiovascular Disease
[4] = ELN hCV1253630, All Patients, Non-fatal MI (def & prob)
[5] = ELN hCV1253630, All Patients, Total Cardiovascular Disease Events
[6] = ELN hCV1253630, All Patients, Total Coronary Heart Disease Events
[7] = FCGR2A hCV9077561, All Patients, 0 Rare Alleles, Prava arm
[8] = FCGR2A hCV9077561, All Patients, 1 Rare Allele, Prava arm
[9] = FCGR2A hCV9077561, All Patients, 2 Rare Alleles, Prava arm
[10] = HLA-DPA1 hCV15760070, All Patients, Coronary Artery Bypass or Revascularization
[11] = HLA-DPA1 hCV15760070, All Patients, Total Coronary Heart Disease Events

CC[C@H](C)C(=O)O[C@H]1C[C@H](O)C=C2C=C[C@H](C)[C@H](CC[C@@H](O)C[C@@H](O)CC(=O)O)[C@H]21 [pravastatin]
Fatal CHD/Definite Non-fatal MI, n/total (%) (ELN hCV1253630, All Patients, 2 Rare Alleles, Prava, n/total 29/245): (11.8%)
Non-fatal MI (def & prob), n/total (%) (ELN hCV1253630, All Patients, 2 Rare Alleles, Prava, n/total 30/245): (12.2%)
Fatal/Non-fatal MI (def & prob), n/total (%) (ELN hCV1253630, All Patients, 2 Rare Alleles, Prava, n/total 33/245): (13.5%)
Total Coronary Heart Disease Events, n/total (%) (ELN hCV1253630, All Patients, 2 Rare Alleles, Prava, n/total 88/245): (35.9%)
Hosp. for Cardiovascular Disease, n/total (%) (ELN hCV1253630, All Patients, 2 Rare Alleles, Prava, n/total 113/245): (46.1%)
Total Cardiovascular Disease Events, n/total (%) (ELN hCV1253630, All Patients, 2 Rare Alleles, Prava, n/total 115/245): (46.9%)
Prava vs. Placebo Odds Ratio, 0 Rare Alleles [1]: 0.50
Prava vs. Placebo Odds Ratio, 1 Rare Alleles [1]: 0.75
Prava vs. Placebo Odds Ratio, 2 Rare Alleles [1]: 1.41
Prava vs. Placebo Odds Ratio, 0 Rare Alleles [2]: 0.44
Prava vs. Placebo Odds Ratio, 1 Rare Alleles [2]: 0.68
Prava vs. Placebo Odds Ratio, 2 Rare Alleles [2]: 1.63
Prava vs. Placebo Odds Ratio, 0 Rare Alleles [3]: 0.63
Prava vs. Placebo Odds Ratio, 1 Rare Alleles [3]: 0.76
Prava vs. Placebo Odds Ratio, 2 Rare Alleles [3]: 1.15
Prava vs. Placebo Odds Ratio, 0 Rare Alleles [4]: 0.50
Prava vs. Placebo Odds Ratio, 1 Rare Alleles [4]: 0.67
Prava vs. Placebo Odds Ratio, 2 Rare Alleles [4]: 1.63
Prava vs. Placebo Odds Ratio, 0 Rare Alleles [5]: 0.63
Prava vs. Placebo Odds Ratio, 1 Rare Alleles [5]: 0.75
Prava vs. Placebo Odds Ratio, 2 Rare Alleles [5]: 1.11
Prava vs. Placebo Odds Ratio, 0 Rare Alleles [6]: 0.66
Prava vs. Placebo Odds Ratio, 1 Rare Alleles [6]: 0.73
Prava vs. Placebo Odds Ratio, 2 Rare Alleles [6]: 1.26
Catheterization, n/total (%) [7]: (11.6%)
Coronary Artery Bypass or Revascularization, n/total (%) [7]: (16.1%)
Catheterization, n/total (%) [8]: (11.2%)
Coronary Artery Bypass or Revascularization, n/total (%) [8]: (14.8%)
Catheterization, n/total (%) [9]: (6.8%)
Coronary Artery Bypass or Revascularization, n/total (%) [9]: (11.8%)
Fatal CHD/Definite Nonfatal MI, n/total (%) (0 Rare Alleles, Prava arm): (10.5%)
Fatal/Nonfatal MI (def & prob), n/total (%) (0 Rare Alleles, Prava arm): (10.6%)
MI (Fatal/Nonfatal), n/total (%) (0 Rare Alleles, Prava arm): (10.9%)
Nonfatal MI (Probable/Definite), n/total (%) (0 Rare Alleles, Prava arm): (10.3%)
Nonfatal MI (def & prob), n/total (%) (0 Rare Alleles, Prava arm): (9.9%)
Fatal CHD/Definite Nonfatal MI, n/total (%) (1 Rare Allele, Prava arm): (7.4%)
Fatal/Nonfatal MI (def & prob), n/total (%) (1 Rare Allele, Prava arm): (8.7%)
MI (Fatal/Nonfatal), n/total (%) (1 Rare Allele, Prava arm): (8.7%)
Nonfatal MI (Probable/Definite), n/total (%) (1 Rare Allele, Prava arm): (8.1%)
Nonfatal MI (def & prob), n/total (%) (1 Rare Allele, Prava arm): (7.6%)
Fatal CHD/Definite Nonfatal MI, n/total (%) (2 Rare Alleles, Prava arm): (8.1%)
Fatal/Nonfatal MI (def & prob), n/total (%) (2 Rare Alleles, Prava arm): (6.5%)
MI (Fatal/Nonfatal), n/total (%) (2 Rare Alleles, Prava arm): (6.5%)
Nonfatal MI (Probable/Definite), n/total (%) (2 Rare Alleles, Prava arm): (6.5%)
Nonfatal MI (def & prob), n/total (%) (2 Rare Alleles, Prava arm): (4.8%)
Coronary Artery Bypass or Revascularization, n/total (%) (HLA-DPA1 hCV15760070, All Patients, 0 Rare Alleles, Prava, n/total 143/1019): (14.0%)
Total Coronary Heart Disease Events, n/total (%) (HLA-DPA1 hCV15760070, All Patients, 0 Rare Alleles, Prava, n/total 285/1019): (28.0%)
Coronary Artery Bypass or Revascularization, n/total (%) (HLA-DPA1 hCV15760070, All Patients, 1 Rare Allele, Prava, n/total 67/443): (15.1%)
Total Coronary Heart Disease Events, n/total (%) (HLA-DPA1 hCV15760070, All Patients, 1 Rare Allele, Prava, n/total 136/443): (30.7%)
Coronary Artery Bypass or Revascularization, n/total (%) (HLA-DPA1 hCV15760070, All Patients, 2 Rare Alleles, Prava, n/total 9/52): (17.3%)
Total Coronary Heart Disease Events, n/total (%) (HLA-DPA1 hCV15760070, All Patients, 2 Rare Alleles, Prava, n/total 21/52): (40.4%)
Prava vs. Placebo Odds Ratio, 0 Rare Alleles [10]: 0.65
Prava vs. Placebo Odds Ratio, 1 Rare Alleles [10]: 0.71
Prava vs. Placebo Odds Ratio, 2 Rare Alleles [10]: 5.65
Prava vs. Placebo Odds Ratio, 0 Rare Alleles [11]: 0.69
Prava vs. Placebo Odds Ratio, 1 Rare Alleles [11]: 0.86
Prava vs. Placebo Odds Ratio, 2 Rare Alleles [11]: 2.48
Fatal/Non-fatal MI (def & prob), n/total (%) (HLA-DPB1 hCV8851085, All Patients, 0 Rare Alleles, Prava, n/total 82/919): (8.9%)
